Test results: patent publication US4814340A, “1,4-diaryl alkane derivatives having insecticidal and acaricidal activity” (priority 1982, dated 1989)
Where a name gives a salt, the structure may show the parent alone. Read-outs that look alike come from different tables or passages of the source.

Tests used:
yearling carps = assay: Test 5 (Fish Toxicity); type: in vivo, carp
Method: (§1) Compounds (a) through (g) described below were tested as comparative compounds in the same manner as the compounds of the present invention. All the tests were doubly carried out. Namely, each result was expressed by an average value of two data.
A water tank having a width of 60 cm, a length of 30 cm and a height of 40 cm was filled with water, and 10 yearling carps having a body length of about 5 cm were set free in the tank and adapted to the environment in the tank. An acetone solution of a test compound was applied into water so as to become a concentration of 1 or 0.1 ppm in water by adding said acetone solution at a rate of one part by volume per 100 parts by volume of water. 48 hours after, the number of killed and living carps was counted and the effect of a test compound on carps was examined.

[1] = system: green rice leafhopper (female adults); assay: Test 2 (Effect on Green Rice Leafhopper); type: in vivo; conditions: Nephotettix cincticeps, 48 hours, female adults, read-out: Mortality (%)
Method: as §1
Four or five seedlings of paddy rice with three leaves were bundled, and thereon the same dilution of the emulsifiable concentrate as used in Test 1 was sprayed in an amount of 3 ml. The bundle was dried and covered with a metal net cylinder, and 10 female adults of green rice leafhopper were set free in the cylinder. 48 hours after, the number of killed adults was counted.

[2] = system: common cutworm (third-instar larvae); assay: Test 1 (Effect on Common Cutworm); type: in vivo; conditions: Spodoptera litura
Method: as §1
The emulsifiable concentrate of the test compound, prepared according to the method described in Formulation Example 1, was diluted with water to a specified concentration. Sweet potato leaves were sufficiently immersed in the dilution. The sweet potato leaves were dried and placed in a plastic cup having a diameter of 10 cm, and 10 third-instar larvae of common cutworm were set free in each cup. 48 hours after, the numbers of killed and living larvae were counted and the mortality was calculated.

[3] = 20 ppm, 48 hours, third-instar larvae, read-out: Mortality (%)
[4] = 100 ppm, 48 hours, third-instar larvae, read-out: Mortality (%)

| Structure (SMILES) | Mortality(%) 48 Hours After (yearling carps; 0.1 ppm in water) | Mortality(%) 48 Hours After (yearling carps; 1 ppm in water) | mortality at 20 ppm [1] | mortality at 100 ppm [1] | mortality at 20 ppm [2, 3] | mortality at 100 ppm [2, 4] | mortality at 20 ppm ([2]; 48 h) | mortality at 100 ppm ([2]; 48 h) |
| --- | --- | --- | --- | --- | --- | --- | --- | --- |
| CCOc1ccc(C2(CCCc3ccc(F)c(Oc4ccccc4)c3)CCC2)cc1 [Compound 38, 1-(3-Phenoxy-4-fluorophenyl)-3-[1-(4-ethoxyphenyl)cyclobutyl]propane] | 0% | 0% | 100% | 100% |  |  |  |  |
| CCOc1ccc(C(C)(C)CCCc2cccc(Oc3ccccc3F)c2)cc1 [Compound 42] |  |  | 100% | 100% |  |  |  |  |
| CCOc1ccc(C(C)(C)CCCc2ccc(F)c(Sc3ccccc3)c2)cc1 [Compound 36] |  |  | 100% | 100% |  |  |  |  |
| CCOc1ccc(C(C)(C)CCCc2ccc(F)c(Oc3ccc(F)cc3)c2)cc1Cl [Compound 67] | 0% | 0% | 100% | 100% | 60% | 100% |  |  |
| C#CCOc1ccc(C(C)(C)CCCc2cccc(Oc3ccccc3)c2)cc1 [Compound 45] |  |  | 80% | 100% | 80% | 100% |  |  |
| CCOc1ccc(C(C)(C)CCCc2cccc(Oc3ccc(Cl)cc3)c2)cc1 [Compound 39] |  |  | 90% | 100% |  |  |  |  |
| CCOc1ccc(C(C)(C)CCCc2ccc(F)c(Oc3ccccc3)c2)cc1 [Compound 3, 1-(3-phenoxy-4-fluorophenyl)-4-(4-ethoxyphenyl)-4-methylpentane] |  |  | 100% | 100% | 100% | 100% |  |  |
| CCC(C)(CCCc1cccc(Oc2ccccc2)c1)c1ccc(Cl)cc1 (centres unmarked) [Compound 7, 1-(3-phenoxyphenyl)-4-(4-chlorophenyl)-4-methylhexane] |  |  | 65% | 100% |  |  |  |  |
| CC(C)(CCCc1cccc(Oc2ccccc2)c1)c1ccc(C=C(Cl)Cl)cc1 [Compound 63] |  |  | 100% | 100% | 70% | 100% |  |  |
| CC(C)(CCCc1cccc(Oc2ccccc2)c1)c1ccc2ccccc2c1 [Compound 18, 1-(3-Phenoxyphenyl)-4-(2-naphthyl)-4-methylpentane] | 0% | 0% | 100% | 100% |  |  |  |  |
| CC(C)(CCCc1cccc(Oc2ccccc2)c1)c1ccc(Br)cc1 [Compound 47] |  |  | 75% | 100% |  |  |  |  |
| CC(C)C(C)(CCCc1cccc(Oc2ccccc2)c1)c1ccc(Cl)cc1 (centres unmarked) [Compound 49] |  |  | 60% | 100% |  |  |  |  |
| CCOc1ccc(C(C)(C)CCCc2cccc(Sc3ccccc3)c2)cc1 [Compound 30] |  |  | 70% | 100% |  |  |  |  |
| Clc1ccc(C2(CCCc3cccc(Oc4ccccc4)c3)CC2(Cl)Cl)cc1 (centres unmarked) [Compound 50, 1-(3-Phenoxyphenyl)-3-[1-(4-chlorophenyl)-2,2-dichlorocyclopropyl]-propane] |  |  | 50% | 100% |  |  |  |  |
| CC(C)(CCCc1cccc(Oc2ccccc2)c1)c1ccc(Cl)cc1 [Compound 8, 1-(3-phenoxyphenyl)-4-(4-chlorophenyl)-4-methylpentane] | 0% | 0% | 100% | 100% | 95% | 100% |  |  |
| CCOc1ccc(C(C)(C)CCCc2cccc(Oc3ccc(F)cc3)c2)cc1 [Compound 41] | 0% | 0% | 100% | 100% |  |  |  |  |
| CC(C)(CCCc1cccc(Oc2ccccc2)c1)c1ccc(C(=O)OCCF)cc1 [Compound 68] |  |  | 40% | 80% |  |  |  |  |
| CC(C)(CCCc1cccc(Oc2ccccc2)c1)c1ccc(Cl)c(Cl)c1 [Compound 26] | 0% | 0% | 50% | 100% |  |  |  |  |
| CC(C)(CCCc1cccc(Oc2ccccc2)c1)c1ccc(OC(F)=CCl)cc1 [Compound 37] |  |  |  |  | 80% | 100% |  |  |
| CCCOc1ccc(C(C)(C)CCCc2cccc(Oc3ccccc3)c2)cc1 [Compound 33] | 0% | 0% | 100% | 100% |  |  |  |  |
| CCC(CCCc1cccc(Oc2ccccc2)c1)c1ccc(Cl)cc1 (centres unmarked) [Compound 23] | 0% | 0% | 75% | 100% |  |  |  |  |

| Structure (SMILES) | Mortality(%) 48 Hours After (yearling carps; 0.1 ppm in water) | Mortality(%) 48 Hours After (yearling carps; 1 ppm in water) | mortality at 20 ppm [1] | mortality at 100 ppm [1] | mortality at 20 ppm [2, 3] | mortality at 100 ppm [2, 4] | mortality at 20 ppm ([2]; 48 h) | mortality at 100 ppm ([2]; 48 h) |
| --- | --- | --- | --- | --- | --- | --- | --- | --- |
| C#CC(CCC(C)(C)c1ccc(OCC)cc1)c1ccc(F)c(Oc2ccccc2)c1 (centres unmarked) [Compound 51, 1-(3-Phenoxy-4-fluorophenyl)-1-ethynyl-4-(4-ethoxyphenyl)-4-methylpentane] |  |  | 60% | 90% |  |  |  |  |
| CC(C)(CCCc1cccc(Oc2ccccc2)c1)c1ccc(OC(F)(F)C(Cl)Cl)cc1 [Compound 25] |  |  | 90% | 100% |  |  |  |  |
| CCOc1ccc(C(C)(C)CCCc2cccc(C(=O)c3ccccc3)c2)cc1Br [Compound 13, 1-(3-benzoylphenyl)-4-(3-bromo-4-ethoxyphenyl)-4-methylpentane] |  |  | 40% | 100% |  |  |  |  |
| CCOc1ccc(C(C)(C)CCC(C#N)c2cccc(Oc3ccccc3)c2)cc1 (centres unmarked) [Compound 15, 1-(3-Phenoxyphenyl)-1-cyano-4-(4-ethoxyphenyl)-4-methylpentane] |  |  | 70% | 95% |  |  |  |  |
| COc1ccc(C(C)(C)CCCc2cccc(Oc3ccccc3)c2)cc1 [Compound 5, 1-(3-phenoxyphenyl)-4-(4-methoxyphenyl)-4-methylpentane] | 0% | 0% | 100% | 100% |  |  |  |  |
| CC(C)(CCC(C#N)c1ccc(F)c(Oc2ccccc2)c1)c1ccc(Cl)cc1 (centres unmarked) [Compound 62, 1-(3-Phenoxy-4-fluorophenyl)-1-cyano-4-(4-chlorophenyl)-4-methylpentane] |  |  | 45% | 100% |  |  |  |  |
| CC(C)(CCCc1cccc(Oc2ccccc2)c1)c1ccc(C(=O)OC(F)(F)C(F)F)cc1 [Compound 69] |  |  | 75% | 100% |  |  |  |  |
| CC(C)=Cc1ccc(C(C)(C)CCCc2cccc(Oc3ccccc3)c2)cc1 [Compound 59] |  |  | 70% | 100% |  |  |  |  |
| CNC(=O)ON=C(C)SC [(d), Methomyl, reference compound] |  |  |  |  |  |  | 80% | 100% |
| CCOc1ccc(C(C)(C)CCCc2cccc(Cc3ccccc3)c2)cc1 [Compound 14, 1-(3-benzylphenyl)-4-(4-ethoxyphenyl)-4-methylpentane] |  |  | 50% | 90% |  |  |  |  |
| COc1ccc(C(C)(C)CCCc2cccc(Oc3ccccc3)c2)cc1OC [Compound 22] |  |  | 50% | 95% |  |  |  |  |
| CC(C)(CCCc1cccc(Oc2ccccc2)c1)c1ccc(C#N)cc1 [Compound 58, 1-(3-Phenoxyphenyl)-4-(4-cyanophenyl)-4-methylpentane] |  |  | 100% | 100% | 80% | 100% |  |  |
| CCOc1ccc(C(C)(C)CCCc2cccc(C(=O)c3ccccc3)c2)cc1 [Compound 34] |  |  | 50% | 100% |  |  |  |  |
| CCOc1ccc(C(C)(C)CCCc2cccc(Oc3ccccc3)c2)cc1OCC [Compound 28] |  |  | 80% | 100% |  |  |  |  |
| CC(C)(CCCc1cccc(Oc2ccccc2)c1)c1ccccc1 [Compound 17] | 0% | 0% | 95% | 100% | 50% | 100% |  |  |
| CC(C)(CCCc1cccc(Oc2ccccc2)c1)c1cccc(C(F)(F)F)c1 [Compound 2, 1-(3-phenoxyphenyl)-4-(3-trifluoromethylphenyl)-4-methylpentane] |  |  | 80% | 100% |  |  |  |  |
| CC(C)(CCCc1cccc(Oc2ccccc2)c1)c1ccc(OC(F)F)cc1 [Compound 32] |  |  | 100% | 100% | 100% | 100% |  |  |
| Oc1c(Cl)c(Cl)c(Cl)c(Cl)c1Cl [(f), PCP sodium salt, reference compound] | 55% | 100% |  |  |  |  |  |  |
| CC(C)(CCCc1cccc(Oc2ccccc2)c1)c1ccc(Oc2ccccc2)cc1 [Compound 46] |  |  | 100% | 100% | 85% | 100% |  |  |
| CC(C)(CCCc1cccc(Oc2ccccc2)c1)c1cccc(Cl)c1 [Compound 21] | 0% | 0% | 100% | 100% |  |  |  |  |
